Results as given in patent publication US20220233566A1, “NOVEL CARBONATE COMPOUND HAVING PYRROLOPYRIMIDINE SKELETON OR PHARMACEUTICALLY ACCEPTABLE SALT THEREOF” (TAIHO PHARMACEUTICAL CO., LTD., priority 2019, published 2022).

Assays:
[1] = Presence of prodrug in mouse and absorbency (plasma AUC after oral administration); format: in vivo; details: male, Balb/cA, mouse, 7.6 umol/kg, mice, 7.6 μmol/kg, administered compound itself in plasma, read-out: AUC0-6hr
Procedure: The dosage amounts of the compounds of Comparative Examples 1 to 5 and Examples 1 to 26 are those (mole/10 mL/kg) shown in Tables. Solutions for administration were prepared with an 0.5% aqueous solutions of HPMC so as to satisfy the dosage amounts.
Note that, the “amount of mole/10 mL/kg” means as follows: for example “10 mmol/10 mL/kg” means that 10 mmol of a test compound per body-weight (1 kg) of a mouse was dispersed or dissolved in a solution (10 mL) for administration. The same applies hereinafter.
The solutions for administration prepared above were orally administered to mice (Balb/cA, male) not fasted each by use of an oral administration sonde.
The mice were anesthetized with isoflurane 0.5, 1, 2, 4 and 6 hours after administration and blood was taken from the facial vein by use of a specific needle (animal lancet) and a heparin-coated hematocrit tube.
The blood sampled was immediately centrifuged (13000 rpm, 2 minutes, 4° C.) to prepare the plasma samples. After proteins were removed from the plasma samples, the concentrations of the test compound in the plasma samples were measured by LC/MS/MS.
The value of “area under the curve” (AUC) of drug concentration in blood versus time was calculated using analysis software such as Phoenix (registered trademark) WinNonlin (registered trademark).
In Table 3, “Comparative Example 1” and “Comparative Example 2” represent the “compound (Br form) of Comparative Example 1” and the “compound (I form) of Comparative Example 2”, respectively. In Table 4, “Comparative Example 6” represents the “compound (C1 form) of Comparative Example 6”.

A172 = assay: Growth suppression activity in human tumor cell line; format: cell-based; details: A 172, 72 h; Human brain tumor, A172, 3 days
Procedure: (§1) Human tumor cell lines different in type were suspended in mediums, seeded in individual wells of a multi-well plate and cultured. On the day after initiation of culture, serially diluted solutions of a compound were added. Culture was carried out for further 3 days. Cells were counted by a CellTiter-Glo (manufactured by Promega KK) in accordance with the protocol recommended by Promega KK. Cell viability was calculated in accordance with the equation shown below and the concentration (IC50 (μM)) of the compound at which 50% of cell growth is inhibited was obtained.
(§2) T: Intensity of light emitted from a well containing a compound
(§3) C: Intensity of light emitted from a well containing no compound

CCRFCEM = assay: as above; format: cell-based; details: CCRF-CEM, 72 h, Human hematopoietic organ tumor, 3 days
Procedure: as §1, §2, §3

CFPAC1 = assay: as above; format: cell-based; details: CFPAC-1, 72 h; Human pancreatic cancer, CFPAC1, 3 days
Procedure: as §1, §2, §3

DLD1 = assay: as above; format: cell-based; details: DLD-1, 72 h; Human colorectal cancer, DLD1, 3 days
Procedure: as §1, §2, §3

H1703 = assay: as above; format: cell-based; details: NCI-H1703, 72 h; Human lung cancer, H1703, 3 days
Procedure: as §1, §2, §3

H69 = assay: as above; format: cell-based; details: NCI-H69, 72 h; Human lung cancer, H69, 3 days
Procedure: as §1, §2, §3

HCT116 = assay: as above; format: cell-based; details: HCT-116, 72 h; Human colorectal cancer, HCT116, 3 days
Procedure: as §1, §2, §3

HT29 = assay: as above; format: cell-based; details: HT-29, 72 h; Human colorectal cancer, HT29, 3 days
Procedure: as §1, §2, §3

LN229 = assay: as above; format: cell-based; details: LN-229, 72 h; Human brain tumor, LN229, 3 days
Procedure: as §1, §2, §3

MIAPACA2 = assay: as above; format: cell-based; details: MIA PaCa-2, 72 h; Human pancreatic cancer, MIAPACA2, 3 days
Procedure: as §1, §2, §3

MKN45 = assay: as above; format: cell-based; details: MKN-45, 72 h; Human stomach cancer, MKN45, 3 days
Procedure: as §1, §2, §3

MOLT4 = assay: as above; format: cell-based; details: MOLT-4, 72 h; Human hematopoietic organ tumor, MOLT4, 3 days
Procedure: as §1, §2, §3

MV-4-11 = assay: as above; format: cell-based; details: MV4-11, 72 h; Human hematopoietic organ tumor, MV-4-11, 3 days
Procedure: as §1, §2, §3

A427 = assay: Growth suppression activity to human tumor cell line (Evaluation 3); format: cell-based; details: A-427, 72 h; Human lung cancer, A427, 3 days
Procedure: as §1, with “(IC50 (nM))” for “(IC50 (μM))”, “of a” for “of the”
as §2, §3

H520 = assay: as above; format: cell-based; details: NCI-H520, 72 h; Human lung cancer, H520, 3 days
Procedure: as §1, with “(IC50 (nM))” for “(IC50 (μM))”, “of a” for “of the”
as §2, §3

[2] = tested on: human brain tumor cell line (U-87 MG); assay: Evaluation 1 of antitumor effect and toxicity in mouse (U-87 MG subcutaneous transplant); format: in vivo, BALB/cA Jcl-nu/nu mice; details: oral every day; Comparative Example 2 12 mg/kg/day, Example 1 15.4 mg/kg/day
Procedure: The day of grouping mice was determined Day 0.
IRs of Comparative Example 2-compound administration group and Example 1-compound administration group on the final day of evaluation (Day 6 in Comparative Example 2 and Day 13 in Example 1) are shown in FIG. 1 and BWC versus elapsed days is shown in FIG. 2.

[3] = tested on: human brain tumor cell line (U-87 MG); assay: Combination use of compound and radiation, cell viability (crystal violet); format: cell-based; details: any order (same-day, compound first, radiation first), Student's t-test
Procedure: A human brain tumor cell line (U-87 MG) was suspended in a medium, seeded in individual wells of a multi-well plate and cultured. In the case where radiation exposure and addition of a compound are simultaneously carried out, both treatments were carried out on two days after initiation of culture. In the case where addition of a compound preceded radiation exposure, a serially diluted solution of a compound was added on the day after initiation of culture and radiation exposure was carried out on two days after initiation of culture. In the case where radiation exposure preceded addition of a compound, radiation exposure was carried out on the day after initiation of culture and a serially diluted solution of a compound was added on the two days after initiation of culture. Day 5 after seeding, cells were fixed with a 25% aqueous solution of glutaraldehyde and stained with a staining fluid (0.05 w/v % crystal violet in 20% methanol). After an extract (0.1 N NaH2PO4: 100% ethanol=1:1) was added and stirred, an absorbance at 540 nm was measured to obtain a cell count. The cell viability was calculated in accordance with the following equation and statistically processed in accordance with a Student's t-test.
T: Absorbance of a well exposed to radiation or containing a compound
C: Absorbance of a well neither exposed to radiation nor containing a compound

[4] = tested on: human brain tumor cell line (U-87 MG); assay: Combinational effect of compound and temozolomide (TMZ), cell viability (crystal violet); format: cell-based; details: any order (same-day, compound first, TMZ first), Student's t-test
Procedure: A human brain tumor cell line (U-87 MG) was suspended in a medium, seeded in individual wells of a multi-well plate and cultured. In the case where two compounds are simultaneously added, both compounds were added on two days after initiation of culture. In the case where addition of the compound of the present invention preceded, a serially diluted solution of the compound was added on the day after initiation of culture and a serially diluted solution of TMZ was added two days after initiation of culture. In the case where addition of TMZ preceded, a serially diluted solution of TMZ was added on the day after initiation of culture and a serially diluted solution of the compound was added on two days after initiation of culture. Day 5 after seeding, cells were fixed with a 25% aqueous solution of glutaraldehyde and stained with a staining fluid (0.05 w/v % crystal violet in 20% methanol). After an extract (0.1 N NaH2PO4: 100% ethanol=1:1) was added and stirred, an absorbance at 540 nm was measured to obtain a cell count. The cell viability was calculated in accordance with the following equation and statistically processed in accordance with a Student's t-test.
T: Absorbance of a well containing TMZ or a compound
C: Absorbance of a well containing neither TMZ nor a compound

## Nc1ncnc2c1c(I)cn2[C@@H]1O[C@H](CO)[C@@H](O)[C@@H]1F [Comparative Example 2, (2R,3R,4S,5R)-5-(4-amino-5-iodo-7H-pyrrolo[2,3-d]pyrimidin-7-yl)-4-fluoro-2-(hydroxymethyl) tetrahydrofuran-3-ol]
[1]
  AUC(0-t): 0.21 µM·h
A172
  IC50: 30 nM
CCRFCEM
  IC50: 40 nM
CFPAC1
  IC50: 50 nM
DLD1
  IC50: 40 nM
H1703
  IC50: 40 nM
H69
  IC50: 60 nM
HCT116
  IC50: 90 nM
HT29
  IC50: 130 nM
LN229
  IC50: 20 nM
MIAPACA2
  IC50: 40 nM
MKN45
  IC50: 130 nM
MOLT4
  IC50: 10 nM
MV-4-11
  IC50: 4 nM
A427
  IC50: 98 nM
H520
  IC50: 29 nM
[2]
  final day of evaluation (administration continued as long as weight loss was acceptable, until 20% or more): 6 days
[3]
  cell viability, combination treatment with radiation exposure compared to the single treatments: cell viability significantly decreased
[4]
  cell viability, combination treatment with TMZ compared to the single treatments: significant decrease in cell viability
